Laboratory results as given in US20070197522A1, “Dpp-iv inhibitors” (priority 2004, published 2007).

Each compound was assayed against T1, DPP-IV (Homo sapiens, UniProt P27487) (assay: Inhibition of DPP-IV peptidase activity, continuous fluorimetric assay (Gly-Pro-AMC cleavage)). Details: IC50.
T1 construct: Soluble human DPP-IV lacking the transmembrane anchor (Gly31-Pro766) was expressed in a recombinant YEAST-strain; Pre-Pro-alpha-mating factor leader (secretion fusion) (N, cleaved yes); made in house
T1 sequence (P27487 31-766): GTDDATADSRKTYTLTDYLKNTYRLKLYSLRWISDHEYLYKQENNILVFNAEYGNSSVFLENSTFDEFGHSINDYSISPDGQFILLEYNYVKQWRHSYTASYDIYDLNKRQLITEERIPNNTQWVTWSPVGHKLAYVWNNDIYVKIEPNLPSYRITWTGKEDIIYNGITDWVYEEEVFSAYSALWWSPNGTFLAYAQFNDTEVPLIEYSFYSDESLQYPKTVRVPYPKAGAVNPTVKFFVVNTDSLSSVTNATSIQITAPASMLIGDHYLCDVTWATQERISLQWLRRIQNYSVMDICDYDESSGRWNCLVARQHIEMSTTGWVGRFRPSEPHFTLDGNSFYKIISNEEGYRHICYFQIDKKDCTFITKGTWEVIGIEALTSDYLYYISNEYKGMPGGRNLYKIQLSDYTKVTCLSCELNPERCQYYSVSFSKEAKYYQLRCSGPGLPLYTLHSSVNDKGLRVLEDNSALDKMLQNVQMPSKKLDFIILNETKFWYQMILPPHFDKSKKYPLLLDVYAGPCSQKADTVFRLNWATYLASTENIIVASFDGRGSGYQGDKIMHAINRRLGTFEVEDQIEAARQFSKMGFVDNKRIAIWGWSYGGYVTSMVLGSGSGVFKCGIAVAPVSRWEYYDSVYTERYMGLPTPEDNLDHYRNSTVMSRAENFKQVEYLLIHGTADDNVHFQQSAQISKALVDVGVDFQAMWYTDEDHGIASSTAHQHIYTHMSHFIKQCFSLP
Type: biochemical, human and porcine
Protocol: Inhibition of DPP-IV peptidase activity was monitored with a continuous fluorimetric assay. This assay is based on the cleavage of the substrate Gly-Pro-AMC (Bachem) by DPP-IV, releasing free AMC. The assay is carried out in 96-well microtiterplates. In a total volume of 100 μL, compounds are preincubated with 50 pM DPP-IV employing a buffer containing 10 mM Hepes, 150 mM NaCl, 0.005% Tween 20 (pH 7.4). […] The final concentration of DMSO is 1%. The inhibitory potential of the compounds were determined.
Soluble human DPP-IV lacking the transmembrane anchor (Gly31-Pro766) was expressed in a recombinant YEAST-strain as Pre-Pro-alpha-mating fusion. The secreted product (rhuDPP-IV-Gly31-Pro766) was purified from fermentation broth (>90% purity).
`N[C@@H](CC(=O)NCc1n[nH]c2ccc(Cl)cc12)Cc1ccccc1F` [Example 161] was tested, and the IC50 was 101 to 1000 nM.

Same assay, conditions: IC50, inhibition of DPP-IV peptidase activity; 50 pM DPP-IV, 16 μM Gly-Pro-AMC, pH 7.4, 25° C.; values grouped in 3 classes
With `CN(C(=O)C[C@H](N)Cc1ccccc1F)[C@@H](CN1CCCC1)c1ccccc1` [Example 179, (R)-3-Amino-4-(2-fluoro-phenyl)-N-methyl-N-(1-phenyl-2-pyrrolidin-1-yl-ethyl)-butyramide Formic Acid] the IC50 was 101 to 1000 nM.

Same assay, conditions: inhibition of DPP-IV peptidase activity; 50 pM DPP-IV, 16 μM Gly-Pro-AMC, pH 7.4, 25° C.; values grouped in 3 classes; read-out: IC50
Work on `N[C@@H](CC(=O)NCC(c1ccccc1Cl)N1CCOCC1)Cc1ccccc1F` (some centres unmarked) [Example 156] yielded an IC50 of 101 to 1000 nM. Work on `N[C@@H](CC(=O)NCC(c1cccc(Cl)c1)N1CCOCC1)Cc1ccccc1F` (some centres unmarked) [Example 157] yielded an IC50 of 101 to 1000 nM. `NC(CC(=O)NCC(c1ccc(Cl)cc1)N1CCOCC1)Cc1ccccc1F` (centres unmarked) [Example 158] was tested, and the IC50 was 101 to 1000 nM. For `CN1CCN(CC(NC(=O)C[C@H](N)Cc2ccccc2F)c2ccccc2)CC1` (some centres unmarked) [Example 159], the IC50 was 101 to 1000 nM. `CN1CCN(CC(c2ccccc2)N(C)C(=O)C[C@H](N)Cc2ccccc2F)CC1` (some centres unmarked) [Example 160] showed an IC50 of 1000 to 2000 nM. Compound `N[C@@H](CC(=O)NCc1cnn(-c2ccccc2)c1)Cc1ccccc1F` [Example 163] has an IC50 of 101 to 1000 nM. `N[C@@H](CC(=O)NCc1cc(Cl)ccc1-n1cncn1)Cc1ccccc1F` [Example 164] was tested, and the IC50 was 101 to 1000 nM. `NC(CC(=O)NCC(c1ccccc1)N1CCOCC1)Cc1ccccc1F` (centres unmarked) [Example 167] was tested, and the IC50 was 101 to 1000 nM. `N[C@@H](CC(=O)NCc1cccc(-n2cccn2)c1)Cc1ccccc1F` [Example 171] was tested, and the IC50 was 101 to 1000 nM. For `N[C@@H](CC(=O)NCC(c1cccc(Cl)c1)N1CCCC1)Cc1ccccc1F` (some centres unmarked) [Example 172], the IC50 was 101 to 1000 nM. `N[C@@H](CC(=O)N[C@@H](CN1CCCCC1)c1ccccc1)Cc1ccccc1F` [Example 173] gave an IC50 of 101 to 1000 nM. Compound `CC(NC(=O)C[C@H](N)Cc1ccccc1F)c1ccc(-n2ccnc2)cc1` (some centres unmarked) [Example 174] has an IC50 of 101 to 1000 nM. With `CN(Cc1cn2ccccc2n1)C(=O)C[C@H](N)Cc1ccccc1F` [Example 175] the IC50 was 1000 to 2000 nM. Compound `CN(CC(c1ccccc1)N1CCOCC1)C(=O)C[C@H](N)Cc1ccccc1F` (some centres unmarked) [Example 177] has an IC50 of under 100 nM. With `CN(CC(c1ccccc1Cl)N1CCCC1)C(=O)C[C@H](N)Cc1ccccc1F` (some centres unmarked) [Example 178] the IC50 was under 100 nM. Work on `N[C@H](Cc1ccccc1F)CS(=O)(=O)NCc1ccc(C(F)(F)F)nc1` [Example 191, (R)-2-Amino-3-(2-fluoro-phenyl)-Propane-1-sulphonic acid (6-trifluoromethyl-pyridin-3-ylmethyl)-amide] yielded an IC50 of 101 to 1000 nM. Work on `N[C@H](Cc1ccccc1F)CS(=O)(=O)NCc1cccc(C(F)(F)F)c1` [Example 192, (R)-2-Amino-3-(2-fluoro-phenyl)-propane-1-sulphonic acid 3-trifluoromethyl-benzyl-amide] yielded an IC50 of 101 to 1000 nM. Compound `CN(Cc1cccc(C(F)(F)F)c1)S(=O)(=O)C[C@H](N)Cc1ccccc1F` [Example 193, (R)-2-Amino-3-(2-fluoro-phenyl)-propane-1-sulphonic acid methyl-(3-trifluoromethyl-benzyl)-amide] has an IC50 of 101 to 1000 nM.
